# Laboratory results reported in patent US9499868B2, “Determination of single nucleotide polymorphisms useful to predict response for glatiramer acetate” (TEVA PHARMACEUTICAL INDUSTRIES, LTD., priority 2011, dated 2016).
# Like-named read-outs stand apart in the source and are kept apart here.
# What was measured:
# [1] = test system: multiple sclerosis patients (European/Canadian study); assay: Annualized relapse rate in European/Canadian study patients genetically predicted as responders/non-responders by FM1 model; assay type: in vivo, human; settings: 0.8 threshold
# Text: In comparison, the average ARR in either placebo-treated patients or non treated patients (from European/Canadian study and CORAL, respectively) genetically predicted as responders was −7% and 26% lower, respectively, than in patients predicted as Non-Responders and 10% and 11% lower than in the whole study population. The reduction in average ARR by GA over placebo-treated patients in the responders population in the European/Canadian study was 79%.
# [2] = test system: Relapsing-remitting multiple sclerosis patients (FORTE cohort); assay: Annualized relapse rate in FORTE cohort patients genetically predicted as responders/non-responders by predictive models; assay type: in vivo, human
# Method: Relapsing-remitting multiple sclerosis patients were treated with either 20 mg GA or 40 mg GA daily in the Teva FORTE clinical trial (www.medicalnewstoday.com/articles/48863.php). Blood samples were drawn from each subject that signed an informed consent for the pharmacogenetic study and analyzed as described below.
# A clinical relapse was defined as the appearance of one or more new neurological abnormalities or the reappearance of one or more previously observed neurological abnormalities.
# To find genotypic profiles that discriminate responders (R) from the non-responders (NR) to the treatment, we used a backward stepwise logistic regression procedure on the SNPs that emerged significant using the narrow definition (e.g., at p-value=10^−4 or lower). Other models were generated based on combinatorial optimization heuristics. Once a pool of models was created, selected models were chosen based on the low value of Akaike's Information Criterion (AIC) and low number SNPs in the model. The model chosen in the previous step went through “Leave one out” cross validation, searching for high values of the Area Under the ROC curve.
# The response probability p(Response) of a specific patient was calculated according to the tables and formulas indicated for each specific model.
# Patients with p(Response) above 0.5 were predicted to be responders and patients with p(Response) below 0.5 were predicted to be non-responders. When the model was retrospectively applied to the full cohort of 599 FORTE patients, we observed that the annualized relapse rate (ARR) in patients genetically predicted as responders was reduced by 62% compared to all patients, and by 76% compared to non-responders (p<0.0001). When we applied the model retrospectively to a second independent cohort of 79 patients, the model could identify subpopulations genetically predicted to be responders and non-responders with respectively lower (for responders) and higher (for non-responders) relapse rate. In the placebo-treated arm no specific pattern could be observed.
# The models were retrospectively applied to the full cohort of 599 FORTE patients using different predictive thresholds. The ratios between the Annualized Relapse Rate (ARR) of genetically predicted responder patients (R) compared to the average ARR in genetically predicted non-responder patients (NR), and the ratios between the average ARE observed in the genetically predicted responder patients (R) compared to average ARR in the whole study population (All), according to each predictive threshold or two predictive thresholds, are presented in table 37. […]
# RRMS subjects = settings: cited from earlier work
# RRMS patients = settings: cited from earlier work
# [3] = FM1 model, 0.8 threshold, FORTE
# [4] = model GM2068, FORTE cohort, whole study population (All)
# [5] = model GM2090, FORTE cohort, whole study population (All)
# [6] = model GM2094, FORTE cohort, whole study population (All)
# [7] = model GM2277, FORTE cohort, whole study population (All)
substance,measurement,setting,value
Glatiramer acetate [GA],average ARR in GA-treated predicted responders lower than in patients predicted as non-responders,[1],81%
same,average ARR in GA-treated predicted responders lower than in the whole study population,[1],77%
same,reduction in average ARR by GA over placebo-treated patients in the responders population,[1],79%
same,average ARR in GA-treated predicted responders lower than in patients predicted as non-responders,[2]; [3],76%
same,average ARR in GA-treated predicted responders lower than in the whole study population,[2]; [3],64%
same,reduction of annualized relapse rate (ARR) in genetically predicted responders compared to all patients,"[2]; FM1 model, p(Response) threshold 0.5, full cohort of 599 FORTE patients",62%
same,reduction of annualized relapse rate (ARR) in genetically predicted responders compared to non-responders,"[2]; FM1 model, p(Response) threshold 0.5, full cohort of 599 FORTE patients, p<0.0001",76%
same,ARR Vs. all,"[2]; model FM1, response prediction All",100%
same,ARR,"[2]; model FM1, response prediction All (whole FORTE study population, threshold NA)",0.241
same,ARR Vs. all,"[2]; model FM1a, response prediction All",100%
same,ARR,"[2]; model FM1a, response prediction All (whole FORTE study population, threshold NA)",0.245
same,ARR Vs. all,"[2]; model FM2, response prediction All",100%
same,ARR,"[2]; model FM2, response prediction All (whole FORTE study population, threshold NA)",0.245
same,ARR Vs. all,"[2]; model GM1003, response prediction All",100%
same,ARR,"[2]; model GM1003, response prediction All (whole FORTE study population, threshold NA)",0.26
same,ARR Vs. all,"[2]; model GM1006, whole study population (All)",100%
same,ARR,"[2]; model GM1006, whole study population (All), FORTE cohort, 599 patients",0.253
same,ARR Vs. all,"[2]; model GM1011, whole study population (All)",100%
same,ARR,"[2]; model GM1011, whole study population (All), FORTE cohort, 599 patients",0.256
same,ARR Vs. all,"[2]; model GM1012, whole study population (All)",100%
same,ARR,"[2]; model GM1012, whole study population (All), FORTE cohort, 599 patients",0.251
same,ARR Vs. all,"[2]; model GM2004, whole study population (All)",100%
same,ARR,"[2]; model GM2004, whole study population (All), FORTE cohort, 599 patients",0.255
same,ARR,[2]; [4],0.256
same,ARR Vs. all,[2]; [4],100%
same,ARR,[2]; [5],0.254
same,ARR Vs. all,[2]; [5],100%
same,ARR,[2]; [6],0.251
same,ARR Vs. all,[2]; [6],100%
same,ARR,[2]; [7],0.258
same,ARR Vs. all,[2]; [7],100%
same,ARR,"[2]; model GM2338, response prediction All (whole study population), threshold NA, FORTE cohort",0.251
same,ARR Vs. all,"[2]; model GM2338, response prediction All, threshold NA, FORTE cohort",100%
same,ARR,"[2]; model GM3102, response prediction All (whole study population), threshold NA, FORTE cohort",0.263
same,ARR Vs. all,"[2]; model GM3102, response prediction All, threshold NA, FORTE cohort",100%
same,ARR,"[2]; model GM3150, response prediction All (whole study population), threshold NA, FORTE cohort",0.26
same,ARR Vs. all,"[2]; model GM3150, response prediction All, threshold NA, FORTE cohort",100%
same,ARR,"[2]; model GM3332, response prediction All (whole study population), threshold NA, FORTE cohort",0.262
same,ARR Vs. all,"[2]; model GM3332, response prediction All, threshold NA, FORTE cohort",100%
same,tolerability,RRMS subjects; daily standard dose of 20 mg,generally well tolerated
same,reduction of relapse rate compared with placebo,"RRMS subjects; largest controlled study, GA 20 mg, RRMS",32%
same,relapse rate,"RRMS subjects; largest controlled study, under GA 20 mg (1.98 under placebo)",1.34
same,median cumulative number of Gd-enhancing lesions,"RRMS subjects; over 9 months of treatment, 20 mg group (17 under placebo)",11 lesions
same,response rate,RRMS patients; DRB1*1501 carriers,81.8%
same,response rate,RRMS patients; non-carriers of DRB1*1501,39.4%
same,response rate,RRMS patients; whole study population,50%
